Laboratory results taken from patent US20190210973A1, “COMPOUNDS AND METHODS FOR TREATMENT OF CYSTIC FIBROSIS” (The Curators of the University of Missouri, priority 2018, published 2019).

Columns and labels:
Format in all cases: cell-based
[1] = biological target: T1, G551D-CFTR (Homo sapiens, UniProt P13569, G551D); assay: Patch-clamp recording of G551D-CFTR currents in excised inside-out patches of transfected CHO cells; settings: for fold increase of G551D-CFTR currents (ILZH+ATP/IATP): single application
T1 construct: The cDNA constructs of CFTR (G551D and delF508) were co-transfected with peGFP-C3; expressed in transfected cells; host or cells: CHO cells (ATCC), transient co-transfection with pEGFP-C3 (GFP as a separate marker, not fused)
T1 sequence (P13569 whole entry G551D, the tested form may be a part): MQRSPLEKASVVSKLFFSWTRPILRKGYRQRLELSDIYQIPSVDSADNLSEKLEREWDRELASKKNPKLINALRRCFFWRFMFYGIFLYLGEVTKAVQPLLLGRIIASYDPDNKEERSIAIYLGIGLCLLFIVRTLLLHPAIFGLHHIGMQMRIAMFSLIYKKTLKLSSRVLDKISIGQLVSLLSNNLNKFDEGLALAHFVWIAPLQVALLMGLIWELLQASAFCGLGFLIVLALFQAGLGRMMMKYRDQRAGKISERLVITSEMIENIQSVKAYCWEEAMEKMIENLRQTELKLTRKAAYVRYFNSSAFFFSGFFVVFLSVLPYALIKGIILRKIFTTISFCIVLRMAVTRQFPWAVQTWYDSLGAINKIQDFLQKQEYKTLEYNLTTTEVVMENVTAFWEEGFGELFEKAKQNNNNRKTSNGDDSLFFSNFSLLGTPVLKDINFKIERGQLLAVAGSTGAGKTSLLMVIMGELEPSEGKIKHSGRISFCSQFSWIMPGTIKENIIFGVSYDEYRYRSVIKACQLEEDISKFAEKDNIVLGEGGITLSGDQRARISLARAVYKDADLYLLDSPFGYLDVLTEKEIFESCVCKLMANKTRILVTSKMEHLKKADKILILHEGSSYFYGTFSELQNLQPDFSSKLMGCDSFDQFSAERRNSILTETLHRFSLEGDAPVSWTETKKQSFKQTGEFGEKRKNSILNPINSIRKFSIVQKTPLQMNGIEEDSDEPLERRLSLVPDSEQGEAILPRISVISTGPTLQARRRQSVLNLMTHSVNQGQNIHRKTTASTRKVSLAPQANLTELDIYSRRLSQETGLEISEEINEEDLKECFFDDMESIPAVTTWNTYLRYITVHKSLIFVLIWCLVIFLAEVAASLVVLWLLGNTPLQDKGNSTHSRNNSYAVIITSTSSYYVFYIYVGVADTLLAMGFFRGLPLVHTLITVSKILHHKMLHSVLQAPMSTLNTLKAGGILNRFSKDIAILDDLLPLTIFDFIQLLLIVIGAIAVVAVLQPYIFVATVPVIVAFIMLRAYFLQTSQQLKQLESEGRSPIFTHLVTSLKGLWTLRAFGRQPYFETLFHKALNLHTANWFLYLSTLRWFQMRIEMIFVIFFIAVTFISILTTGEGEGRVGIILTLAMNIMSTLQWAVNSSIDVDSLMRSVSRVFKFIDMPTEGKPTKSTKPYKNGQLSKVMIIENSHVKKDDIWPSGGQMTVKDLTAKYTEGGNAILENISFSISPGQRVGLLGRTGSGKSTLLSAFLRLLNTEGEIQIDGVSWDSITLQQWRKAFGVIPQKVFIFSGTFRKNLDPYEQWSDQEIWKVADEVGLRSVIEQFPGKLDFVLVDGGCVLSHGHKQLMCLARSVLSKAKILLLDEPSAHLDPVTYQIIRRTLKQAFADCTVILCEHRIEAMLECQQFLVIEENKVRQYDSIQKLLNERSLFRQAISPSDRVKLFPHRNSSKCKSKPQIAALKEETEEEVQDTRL
Excerpt: (§1) Patch-clamp is considered the gold standard for assessing directly ion channel function in real time. By attaching a glass microelectrode on the surface of a cell, it is possible to record the currents generated by channels proteins that are present in this tiny “patch” of cell membranes. Since millions of ions pass through a single ion channel pore per second, the resulting microscopic currents from a single channel protein molecule can be detected with modem patch-clamp amplifiers. As ion channels (a conductor in electricity term) are arranged in parallel in the cell membrane, it is also possible to assay a group of ion channels by monitoring macroscopic currents representing the sum of currents from individual channels. Microscopic recordings allow artisans to examine exquisitely the effects of compounds on the Po and kinetic parameters of CFTR channels; whereas macroscopic recordings provide an assay not only to quantify the overall effects of compounds on N×Po×i, but also monitor the stability of the CFTR currents in real time.
(§2) Chinese hamster ovary (CHO) cells were grown at 37° C. in Dulbecco's modified Eagle's medium supplemented with 10% fetal bovine serum. Cells were subcultured into 35-mm tissue culture dishes 1 day before transfection. PolyFect transfection reagent (QIAGEN) was used to cotransfect CFTR cDNA and pEGFP-C3 (Takara Bio Inc.), which encodes green fluorescence proteins, into CHO cells. After transfection, cells were incubated at 27° C. for at least 2 days before electrophysiological experiments were performed.
(§3) Glass chips carrying the transfected cells were transferred to a chamber located on the stage of an inverted microscope (IX51; Olympus). Borosilicate capillary glasses were used to make patch pipettes using a two-stage micropipette puller (PP-81, Narishige, Japan). The pipettes were polished with a homemade microforge to a resistance of 2-4 MΩ in the bath solution. Once the seal resistance reached >40 GΩ, membrane patches were excised into an inside-out mode. Subsequently, the pipette was moved to the outlet of a three-barrel perfusion system and perfused with 25 IU PKA and 2 mM ATP until the CFTR current reached a steady state. A patch-clamp amplifier (EPC10, HEKA, Germany) was used to record electrophysiological data at room temperature. The data were filtered online at 100 Hz with an eight-pole Bessel filter (LPF-8; Warner Instruments) and digitized to a computer at a sampling rate of 500 Hz. […] Membrane potential was held at −30 or −50 mV for all recordings.
(§4) Disease-causing mutations (G551D and delF508) were made with PCR-based site-directed mutagenesis using the Pfu Ultra II (Agilent Technologies). […] The cDNA constructs of CFTR (G551D and delF508) were co-transfected with peGFP-C3 (Takara Bio Inc.) encoding the green fluorescent protein into CHO cells using PolyFect transfection reagent (QIAGEN). The transfected cells were transferred into 35 mm tissue culture dishes containing one layer of sterilized glass chips for cells to grow on. The transfected cells were incubated at 27° C. for 2-7 days before electrophysiological experiments were performed.
(§5) All patch-clamp experiments were carried out in the excised inside-out configuration. Micropipettes made of borosilicate capillary glass were pulled with a two-stage vertical puller (Narishige) and then fire-polished with a homemade microforge to reach a pipet resistance of 2-4 MΩ when the pipettes were filled with a standard inside-out pipet solution that contains: 140 mM N-Methyl-D-glucamine-Cl (NMDG-Cl), 2 mM MgCl2, 5 mM CaCl2) and 10 mM HEPES, adjusted to pH 7.4 with NMDG.

[2] = biological target: T2, delF508-CFTR (Homo sapiens, UniProt P13569, DEL508-508); assay: Western blot of delF508-CFTR membrane (surface) expression, Band C; design: delF508 stably-transfected C127 cells were cultured in DMEM with 10% FBS in 6-well plates; expressed in transfected cells; host or cells: C127 cells stably expressing delF508-CFTR; settings: for surface expression of delF508-CFTR (Band C, corrected to vimentin, DMSO = 100): C127 cells
T2 sequence (P13569 with tags, fused parts or gaps DEL508-508): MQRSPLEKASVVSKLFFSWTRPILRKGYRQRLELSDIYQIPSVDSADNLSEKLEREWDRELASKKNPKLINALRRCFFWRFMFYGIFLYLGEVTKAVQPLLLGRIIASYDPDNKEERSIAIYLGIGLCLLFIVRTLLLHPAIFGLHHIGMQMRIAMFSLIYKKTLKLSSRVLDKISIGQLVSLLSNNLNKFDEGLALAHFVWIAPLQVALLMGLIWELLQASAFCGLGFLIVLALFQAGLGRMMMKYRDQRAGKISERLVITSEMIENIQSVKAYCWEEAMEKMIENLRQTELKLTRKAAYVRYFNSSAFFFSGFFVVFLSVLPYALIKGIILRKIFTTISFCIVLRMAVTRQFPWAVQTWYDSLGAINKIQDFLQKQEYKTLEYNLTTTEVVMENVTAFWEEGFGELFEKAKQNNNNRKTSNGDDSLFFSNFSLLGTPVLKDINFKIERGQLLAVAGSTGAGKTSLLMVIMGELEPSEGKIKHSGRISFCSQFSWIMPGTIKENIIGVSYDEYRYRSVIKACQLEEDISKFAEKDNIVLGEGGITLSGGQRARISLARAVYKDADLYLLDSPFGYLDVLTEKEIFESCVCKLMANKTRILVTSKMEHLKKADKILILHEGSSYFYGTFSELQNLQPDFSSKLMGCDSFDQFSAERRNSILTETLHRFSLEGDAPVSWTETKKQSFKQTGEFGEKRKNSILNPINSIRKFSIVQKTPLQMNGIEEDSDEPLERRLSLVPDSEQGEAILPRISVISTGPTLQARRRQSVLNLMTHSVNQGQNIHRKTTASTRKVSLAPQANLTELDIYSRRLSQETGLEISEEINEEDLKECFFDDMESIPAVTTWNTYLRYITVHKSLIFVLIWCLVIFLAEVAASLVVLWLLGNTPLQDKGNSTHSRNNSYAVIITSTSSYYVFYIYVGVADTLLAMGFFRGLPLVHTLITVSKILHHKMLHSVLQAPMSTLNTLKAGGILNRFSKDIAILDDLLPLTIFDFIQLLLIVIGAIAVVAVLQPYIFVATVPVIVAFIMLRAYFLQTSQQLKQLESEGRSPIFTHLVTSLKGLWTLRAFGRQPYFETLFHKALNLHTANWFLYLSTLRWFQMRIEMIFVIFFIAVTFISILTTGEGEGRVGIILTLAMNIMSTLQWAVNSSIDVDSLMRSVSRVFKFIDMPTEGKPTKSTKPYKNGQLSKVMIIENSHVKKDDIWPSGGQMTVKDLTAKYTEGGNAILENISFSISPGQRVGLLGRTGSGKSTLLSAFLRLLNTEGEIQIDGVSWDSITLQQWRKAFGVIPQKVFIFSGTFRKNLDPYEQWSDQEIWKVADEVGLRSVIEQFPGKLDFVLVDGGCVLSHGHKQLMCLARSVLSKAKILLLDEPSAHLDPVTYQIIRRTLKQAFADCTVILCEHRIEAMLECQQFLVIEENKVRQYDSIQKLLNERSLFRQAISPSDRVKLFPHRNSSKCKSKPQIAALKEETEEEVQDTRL
Excerpt: The amount of CFTR proteins in the cell membrane can be determined with Western blot analysis. Like all membrane proteins in the cell, the CFTR protein is synthesized in the endoplasmic reticulum (ER), translocated to the Golgi apparatus for glycosylation before trafficked to the plasma membrane. Because of the addition of complex sugar molecules to CFTR, the molecular weight of “mature” or post-Golgi CFTR in the plasma membrane is higher than that of newly synthesized proteins in the ER. Thus, in Western blot, it is possible to discern two distinct bands: band C representing high molecular weight, mature CFTR, and band B low molecular weight, immature CFTR. While wild-type proteins are present mostly as band C, Class II disease-associated mutations such as delF508 causes a drastic diminution of band C, resulting in an effective decrease of N in the formula N×Po×i. The effects of the reagents (or CFTR correctors) that enhance band C can thus be quantitatively assessed with the Western blot analysis. By the same token, any interactions between different compounds, with positive or negative impact on band C, can be determined with this assay.
Western blot experiments were carried out in both transient expression system (CHO cells) and a stable cell line (C127 cells). CHO cells, grown in 35 mm dishes, were transfected with delF508-CFTR construct in pcDNA plasmids using X-tremeGENE (Roche). Six hours after transfection, tested compounds were added to the medium. In case of delF508-CFTR-expressing stable C127 cells, compounds were added to the medium at about 30% confluence. In both cases, cells were lysed 18 hours post drug treatment using 1×SDS loading buffer. Cell lysates were sheared by pushed through 18G needles. Whole cell lysate were separated in 4˜20% gradient gels (Bio-Rad Laboratories) and transferred onto nitrocellulose membranes. The membranes were blocked with 5% milk in TBST buffer (20 mM Tris, 137 mM NaCl, 0.1% Tween 20) at 4° C. overnight. The membranes were then probed with anti-CFTR antibody (AB596 from the Cystic Fibrosis Foundation) and anti-vimentin antibody as a control (Santa Cruz Biotechnology) at room temperature for two hours. The membranes were washed with TBST five times and then incubated with anti-mouse IgG, HRP-linked antibody (Cell Signaling Technology) at room temperature for one hour. The membranes were washed three times with TBST and developed with chemiluminescence reagent (Thermo Scientific). The luminescence was detected and quantified by a Molecular Image Chemi Doc (Bio-Rad Laboratories).
For Western blotting experiments, delF508 stably-transfected C127 cells were cultured in DMEM with 10% FBS in 6-well plates. Different tested compounds were added to the culture medium within 24 hours of passage to the desired concentration. Cells were lysed 18 hours post drug treatment using 1×SDS loading buffer. Cell lysates were sheared by pushed through 18G needles. Whole cell lysates were separated in 4-20% gradient gels (Bio-Rad Laboratories) and transferred onto nitrocellulose membranes. The membranes were blocked with 5% milk in TBST buffer (20 mM Tris, 137 mM NaCl, 0.1% Tween 20) at 4° C. overnight. The membranes were then probed with anti-CFTR antibody (AB660 from CFTR foundation) and anti-vimentin antibody as a loading control (Santa Cruz Biotechnology) at room temperature for two hours. The membranes were washed with TBST five times and then incubated with anti-mouse IgG, HRP linked antibody (Cell Signaling Technology) at room temperature for one hour. The membranes were washed three times with TBST and developed with chemiluminescence reagent (Thermo Scientific). The luminescence was detected by a Molecular Image Chemi Doc (Bio-Rad Laboratories). […]

[3] = biological target: T2, delF508-CFTR; assay: Patch-clamp recording of delF508-CFTR currents in excised inside-out patches of transfected CHO cells
Excerpt: as §1, §2, §3, §4, §5

## CNCCCCOc1ccc(-c2n[nH]c3cc(Br)ccc23)c(F)c1 [LZH-00025, 4-(4-(6-bromo-1H-indazol-3-yl)-3-fluorophenoxy)-N-methylbutan-1-amine]
[1]; combined application with VX-770, 0.2 μM LZH compound
  fold increase of G551D-CFTR currents (ILZH+ATP+VX-770/IATP): 8.0 ± 1.0, N = 3 fold
[1]; combined application with VX-770, 1 μM LZH compound
  fold increase of G551D-CFTR currents (ILZH+ATP+VX-770/IATP): 11.0 ± 2.9, N = 4 fold
[1]; combined application with VX-770, 5 μM LZH compound
  fold increase of G551D-CFTR currents (ILZH+ATP+VX-770/IATP): 9.7 ± 0.7, N = 4 fold
[1]; 1 μM
  fold increase of G551D-CFTR currents (ILZH+ATP/IATP): 2.1 ± 0.2, N = 11 fold
[1]; 5 μM
  fold increase of G551D-CFTR currents (ILZH+ATP/IATP): 4.9 ± 0.7, N = 14 fold
[1]; 20 μM
  fold increase of G551D-CFTR currents (ILZH+ATP/IATP): 7.4 ± 0.5, N = 8 fold
[2]; 3 μM VX-809 + 0.1 μM LZH compound, lane 5
  surface expression of delF508-CFTR (Band C, corrected to vimentin, DMSO = 100): 263 ± 27, N = 4
[2]; 3 μM VX-809 + 0.5 μM LZH compound, lane 4
  surface expression of delF508-CFTR (Band C, corrected to vimentin, DMSO = 100): 323 ± 14, N = 4
[2]; 3 μM VX-809 + 5 μM LZH compound, lane 3
  surface expression of delF508-CFTR (Band C, corrected to vimentin, DMSO = 100): 300 ± 42, N = 4
[2]; added to 3 μM VX-809
  influence on the effect of Lumacaftor (VX-809) on membrane expression of delF508-CFTR (words): retains or even enhances the effect of Lumacaftor
[3]; combined application with VX-770 (200 nM), 2.5 μM LZH compound
  fold increase of delF508-CFTR currents (ILZH+ATP+VX-770/IATP): 7.7 ± 2.0, N = 3 fold
[3]; combined application with VX-770, 0.5 μM LZH compound
  fold increase of delF508-CFTR currents (ILZH+ATP+VX-770/IATP): 7.3 ± 0.8, N = 3 fold
[3]; single application, 5 μM
  fold increase of delF508-CFTR currents (ILZH+ATP/IATP): 3.6 ± 0.9, N = 4 fold
